How the values were obtained:
[1] = test system: cholesterol 7α-hydroxylase; test: Hepatic cholesterol 7α-hydroxylase activity in chickens fed supplemented diets; type: in vivo, chicken; conditions: control diet + 50 ppm, 4 weeks
Protocol: (§1) This example measured the effects of the TRF and its components on the hepatic enzymatic activity of HMG-CoA reductase and cholesterol 7α-hydroxylase. […] The amount of feed consumed ranged from 11.19-11.60 g per chicken and the feeding period was 4 weeks. The birds were fasted for a period of 36 hours and refed for 48 hours prior to sacrifice (at 0800 hours).

[2] = test system: hypercholesterolemic swine; test: Total cholesterol, triglyceride and glucose concentrations in tissues of hypercholesterolemic swine; type: in vivo; conditions: control diet + 50 ppm, 42 days
Protocol: Each group of three 5-month old swine was administered either a control diet or a control diet supplemented with 50 ppm of TRF or 50 ppm of an individual tocotrienol. […] After a 12 hour fast, serum and plasma samples were taken a 0 hrs, 21 days and 42 days from the start of the feeding period. After taking serum and plasma samples from the pigs at the end of the 42 day period, all of the swine were fasted for a total of 40 hours, followed by a 48 hour refeeding period. One swine from each group was sacrificed at that time and the liver, intestine, lung, heart, loin muscle, adipose tissue and ham muscle were removed.
We next determined the effect of tocotrienols on the total cholesterol, triglyceride and glucose concentrations in various tissues of hypercholesterolemic swine.

[3] = test system: chickens; test: Antibody titers to sheep red blood cells in chickens; type: in vivo, chicken; conditions: control diet + 50 ppm, 4 weeks, sheep red blood cells i.p.
Protocol: The model for this study was 6-week old female white leghorn chickens. Each group of 12 chickens was fed an unsupplemented chicken diet or a control diet supplemented with 50 ppm of a tocotrienol or 100 ppm of a commercially available hypercholesterolemic agent (Geraniol or Lovastatin). […] The chickens were fed over a period of 4 weeks, then the blood was drawn. The antibody response was determined by injecting the chickens i.p. with 0.5 ml of a 5% suspension of sheep red blood cells (RBCs) in PBS (v/v) which were previously washed three times. […] Relative IgG levels were determined by using 2-mercaptoethanol preincubation for 30 min. The relative IgM levels were calculated by subtracting the IgG antibody levels from total antibody levels. All antibody levels are expressed as the log base 2 of the highest titer that was needed to hemagglutinate an equal volume of 0.5% RBC suspension.

[4] = test system: chickens; test: Serum cholesterol, apolipoproteins, triglycerides and glucose in chickens fed supplemented diets; type: in vivo, chicken; conditions: control diet + 50 ppm, 4 weeks
Source text: All assays conducted on chicken or swine serum were done following the protocols described in A. A. Qureshi et al., "Lowering Of Serum Cholesterol In Hypercholesterolemic Humans By Tocotrienols" (Palmvitee), Am. J. Clin. Nutr., 53, pp. 1021S-26S (1991). All enzymatic assays were done following the protocols described in A. A. Qureshi et al., "Effects of Cereals and Culture Filtrate of Trichoderma viride on Lipid Metabolism of Swine", Lipids, 17, pp. 924 (1982). Plasma insulin, glucagon and TNF levels were measured using radioinnumoassay kits from Ventrex Laboratories, Inc. (Portland, Me.), ICN Biomedicals, Inc. (Costa Mesa, Calif.) and Genzyme Corp. (Cambridge, Mass.), respectively. […]
Each group of 6 chickens (6-week old female while leghorn) was administered the chick mash diet described in Example 5, supplemented with one of three different amounts of waxes (sterols), 50 ppm of TRF (prepared as in Example 2) or 5% equivalent of the methanol insoluble fraction Louisiana rice bran oil. […] The birds were fasted for a period of 14 hours prior to sacrifice (at 0800 hours). […]

[5] = biological target: T1, HMG-CoA reductase (Homo sapiens, UniProt P04035); test: Hepatic HMG-CoA reductase activity in chickens fed supplemented diets; type: in vivo, chicken; conditions: control diet + 50 ppm, 4 weeks
T1 construct: hepatocytes isolated from livers of 8-week old female chickens; endogenous in cells; host or cells: primary chicken hepatocytes
T1 sequence (P04035 1-888): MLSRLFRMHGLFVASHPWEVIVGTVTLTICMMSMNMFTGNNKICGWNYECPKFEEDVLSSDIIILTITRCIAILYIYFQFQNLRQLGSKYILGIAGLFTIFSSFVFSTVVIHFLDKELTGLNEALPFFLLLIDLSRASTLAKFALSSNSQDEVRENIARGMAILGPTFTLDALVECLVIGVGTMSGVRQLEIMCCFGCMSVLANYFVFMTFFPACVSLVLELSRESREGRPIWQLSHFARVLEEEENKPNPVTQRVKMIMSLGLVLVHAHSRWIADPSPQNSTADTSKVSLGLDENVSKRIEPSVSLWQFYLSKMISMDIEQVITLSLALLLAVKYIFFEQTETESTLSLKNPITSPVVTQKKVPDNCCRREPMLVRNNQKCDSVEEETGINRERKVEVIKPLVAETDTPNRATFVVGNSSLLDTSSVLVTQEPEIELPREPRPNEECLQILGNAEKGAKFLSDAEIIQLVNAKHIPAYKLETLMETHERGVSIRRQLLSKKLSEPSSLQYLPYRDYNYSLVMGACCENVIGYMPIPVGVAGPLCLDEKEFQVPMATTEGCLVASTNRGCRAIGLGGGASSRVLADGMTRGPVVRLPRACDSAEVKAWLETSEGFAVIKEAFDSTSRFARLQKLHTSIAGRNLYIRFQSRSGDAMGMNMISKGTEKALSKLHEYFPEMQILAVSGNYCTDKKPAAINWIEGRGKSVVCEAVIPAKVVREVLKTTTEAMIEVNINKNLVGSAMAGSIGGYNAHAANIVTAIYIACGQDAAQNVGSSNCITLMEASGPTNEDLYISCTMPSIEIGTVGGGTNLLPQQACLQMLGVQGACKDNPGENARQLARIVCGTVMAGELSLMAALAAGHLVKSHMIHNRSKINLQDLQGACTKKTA
Protocol: as §1

SMILES: CC(C)=CCC/C(C)=C/CC/C(C)=C/CCC1(C)CCc2cc(O)c(C)c(C)c2O1 (stereo not drawn) [γ-T3, γ-tocotrienol, reference compound]
- Cholesterol 7α-Hydroxylase, percentage of control [1]: 107.34%
- Cholesterol 7α-hydroxylase [1]: 10.97 nmol/min/mg
- TOTAL CHOLESTEROL CONCENTRATION, Adipose Tissue [2]: 94.55 mg/100 gm
- TOTAL CHOLESTEROL CONCENTRATION, Ham Muscle [2]: 85.15 mg/100 gm
- TOTAL CHOLESTEROL CONCENTRATION, Heart [2]: 56.68 mg/100 gm
- TOTAL CHOLESTEROL CONCENTRATION, Intestine [2]: 187.06 mg/100 gm
- TOTAL CHOLESTEROL CONCENTRATION, Liver [2]: 149.20 mg/100 gm
- TOTAL CHOLESTEROL CONCENTRATION, Loin Muscle [2]: 103.48 mg/100 gm
- TOTAL CHOLESTEROL CONCENTRATION, Lung [2]: 83.79 mg/100 gm
- TOTAL CHOLESTEROL, Adipose Tissue, percentage of control [2]: 86.43%
- TOTAL CHOLESTEROL, Ham Muscle, percentage of control [2]: 85.15%
- TOTAL CHOLESTEROL, Heart, percentage of control [2]: 87.86%
- TOTAL CHOLESTEROL, Intestine, percentage of control [2]: 86.81%
- TOTAL CHOLESTEROL, Liver, percentage of control [2]: 74.01%
- TOTAL CHOLESTEROL, Loin Muscle, percentage of control [2]: 86.51%
- TOTAL CHOLESTEROL, Lung, percentage of control [2]: 82.36%
- TOTAL GLUCOSE CONCENTRATION, Adipose Tissue [2]: 15.93 mg/100 gm
- TOTAL GLUCOSE CONCENTRATION, Ham Muscle [2]: 52.10 mg/100 gm
- TOTAL GLUCOSE CONCENTRATION, Heart [2]: 46.81 mg/100 gm
- TOTAL GLUCOSE CONCENTRATION, Intestine [2]: 62.50 mg/100 gm
- TOTAL GLUCOSE CONCENTRATION, Liver [2]: 383.68 mg/100 gm
- TOTAL GLUCOSE CONCENTRATION, Loin Muscle [2]: 60.30 mg/100 gm
- TOTAL GLUCOSE CONCENTRATION, Lung [2]: 63.08 mg/100 gm
- TOTAL GLUCOSE, Adipose Tissue, percentage of control [2]: 86.86%
- TOTAL GLUCOSE, Ham Muscle, percentage of control [2]: 96.80%
- TOTAL GLUCOSE, Heart, percentage of control [2]: 95.05%
- TOTAL GLUCOSE, Intestine, percentage of control [2]: 86.84%
- TOTAL GLUCOSE, Liver, percentage of control [2]: 94.53%
- TOTAL GLUCOSE, Loin Muscle, percentage of control [2]: 84.64%
- TOTAL GLUCOSE, Lung, percentage of control [2]: 94.25%
- TOTAL TRIGLYCERIDES CONCENTRATION, Adipose Tissue [2]: 391.58 mg/100 gm
- TOTAL TRIGLYCERIDES CONCENTRATION, Ham Muscle [2]: 181.99 mg/100 gm
- TOTAL TRIGLYCERIDES CONCENTRATION, Heart [2]: 142.72 mg/100 gm
- TOTAL TRIGLYCERIDES CONCENTRATION, Intestine [2]: 351.33 mg/100 gm
- TOTAL TRIGLYCERIDES CONCENTRATION, Liver [2]: 397.51 mg/100 gm
- TOTAL TRIGLYCERIDES CONCENTRATION, Loin Muscle [2]: 201.65 mg/100 gm
- TOTAL TRIGLYCERIDES CONCENTRATION, Lung [2]: 167.18 mg/100 gm
- TOTAL TRIGLYCERIDES, Adipose Tissue, percentage of control activity [2]: 89.88%
- TOTAL TRIGLYCERIDES, Ham Muscle, percentage of control activity [2]: 97.93%
- TOTAL TRIGLYCERIDES, Heart, percentage of control activity [2]: 98.96%
- TOTAL TRIGLYCERIDES, Intestine, percentage of control activity [2]: 98.24%
- TOTAL TRIGLYCERIDES, Liver, percentage of control activity [2]: 92.58%
- TOTAL TRIGLYCERIDES, Loin Muscle, percentage of control activity [2]: 91.79%
- TOTAL TRIGLYCERIDES, Lung, percentage of control activity [2]: 97.22%
- IgG antibody titers in serum [3]: 1.28 Log 2
- IgM antibody titers in serum [3]: 5.83 ± 1.53 Log 2
- Total Ab titers in serum [3]: 6.60 ± 1.51 Log 2
- APO A1, percentage of control [4]: 99.57%
- APO A1 in serum [4]: 139.80 mg/100 ml
- APO B in serum [4]: 29.53 mg/100 ml
- APO B, percentage of control [4]: 89.21%
- DL-Cholesterol/Total Cholesterol [4]: 0.67
- DL-Cholesterol/Total Cholesterol, percentage of control [4]: 114.50%
- Glucose in serum [4]: 208.70 mg/100 ml
- Glucose, percentage of control [4]: 93.05%
- HDL-Cholesterol in serum [4]: 78.39 ± 0.96 mg/dL
- HDL-Cholesterol, percentage of control [4]: 93.70%
- HDL-Cholesterol/LDL-Cholesterol [4]: 2.09
- HDL-Cholesterol/LDL-Cholesterol, percentage of control [4]: 137.50%
- LDL-Cholesterol in serum [4]: 37.52 ± 0.81 mg/dL
- LDL-Cholesterol, percentage of control [4]: 68.14%
- Total Cholesterol in serum [4]: 116.86 ± 1.47 mg/dL
- Total Cholesterol, percentage of control [4]: 81.85%
- Triglycerides in serum [4]: 61.07 mg/100 ml
- Triglycerides, percentage of control [4]: 82.49%
- HMG-CoA Reductase, percentage of control [5]: 78.32%
